Measured values: patent publication US20240139211A1, “METHODS AND COMPOSITIONS FOR TREATING AMYOTROPHIC LATERAL SCLEROSIS” (Amylyx Pharmaceuticals, Inc., priority 2022, published 2024)

Legend:
OAT3 [1] = target: T1, OAT3 (Homo sapiens, UniProt Q8TCC7); experiment: Substrate of OAT3, uptake in HEK293 cells
T1 sequence (Q8TCC7 1-542): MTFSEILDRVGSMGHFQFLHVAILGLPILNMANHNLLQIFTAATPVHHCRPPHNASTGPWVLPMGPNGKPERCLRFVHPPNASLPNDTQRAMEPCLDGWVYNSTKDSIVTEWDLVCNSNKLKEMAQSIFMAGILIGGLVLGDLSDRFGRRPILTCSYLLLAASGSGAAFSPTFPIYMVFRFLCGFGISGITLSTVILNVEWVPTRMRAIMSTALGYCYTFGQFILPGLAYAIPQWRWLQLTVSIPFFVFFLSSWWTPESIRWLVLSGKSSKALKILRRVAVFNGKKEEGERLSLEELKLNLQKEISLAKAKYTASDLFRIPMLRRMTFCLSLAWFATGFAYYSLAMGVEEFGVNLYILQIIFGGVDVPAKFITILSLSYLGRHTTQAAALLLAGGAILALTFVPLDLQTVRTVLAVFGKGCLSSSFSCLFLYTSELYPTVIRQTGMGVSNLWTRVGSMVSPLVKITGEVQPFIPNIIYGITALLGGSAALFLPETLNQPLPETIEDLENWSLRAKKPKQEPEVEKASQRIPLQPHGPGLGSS
Source text: (§1) Vector-transfected HEK cells were used as a control.

OCT1 [2] = target: T2, OCT1 (Homo sapiens, UniProt O15245); experiment: Substrate of OCT1, uptake in HEK293 cells
T2 sequence (O15245 1-554): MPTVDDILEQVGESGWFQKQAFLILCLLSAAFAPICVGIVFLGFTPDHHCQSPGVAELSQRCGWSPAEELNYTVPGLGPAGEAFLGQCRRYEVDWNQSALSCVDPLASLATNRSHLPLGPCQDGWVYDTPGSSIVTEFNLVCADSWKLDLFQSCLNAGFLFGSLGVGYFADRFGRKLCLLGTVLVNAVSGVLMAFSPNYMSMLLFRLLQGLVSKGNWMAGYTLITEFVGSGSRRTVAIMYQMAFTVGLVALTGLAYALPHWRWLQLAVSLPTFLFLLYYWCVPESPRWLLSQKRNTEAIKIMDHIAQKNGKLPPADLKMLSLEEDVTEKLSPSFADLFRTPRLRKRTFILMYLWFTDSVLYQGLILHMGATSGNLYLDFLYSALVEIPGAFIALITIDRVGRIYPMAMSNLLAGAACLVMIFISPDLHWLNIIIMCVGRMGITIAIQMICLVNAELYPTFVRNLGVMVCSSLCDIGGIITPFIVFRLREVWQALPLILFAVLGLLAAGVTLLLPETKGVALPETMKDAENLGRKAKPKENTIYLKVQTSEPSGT
Source text: as §1

OATP1B1 [3] = target: T3, OATP1B1 (Homo sapiens, UniProt Q9Y6L6); experiment: Substrate of OATP1B1, uptake in HEK293 cells
Source text: as §1

Caco-2 cells = details: 1 and 10 μM (tauroursodeoxycholic acid: 10 μM)
in vitro = details: human, Caco-2
BSEP = BSEP (Homo sapiens, UniProt O95342); experiment: Substrate of BSEP; details: test article 1 and 10 μM
OAT3 [4] = target: T1, OAT3; experiment: Inhibitor of OAT3, probe substrate uptake; details: two concentrations per test article
OCT1 [5] = target: T2, OCT1; experiment: Inhibitor of OCT1, probe substrate uptake; details: two concentrations per test article
OATP1B1 [6] = target: T3, OATP1B1; experiment: Inhibitor of OATP1B1, probe substrate uptake
OATP1B3 = OATP1B3 (Homo sapiens, UniProt Q9NPD5); experiment: Inhibitor of OATP1B3, probe substrate uptake; details: two concentrations per test article
human hepatocytes [7] = experiment: Stability of test articles in hepatocyte cultures; details: two concentrations
BCRP = target: T4, BCRP (Homo sapiens, UniProt Q9UNQ0); experiment: Substrate of BCRP (Caco-2 cells, selective inhibitor)
T4 sequence (Q9UNQ0 1-655): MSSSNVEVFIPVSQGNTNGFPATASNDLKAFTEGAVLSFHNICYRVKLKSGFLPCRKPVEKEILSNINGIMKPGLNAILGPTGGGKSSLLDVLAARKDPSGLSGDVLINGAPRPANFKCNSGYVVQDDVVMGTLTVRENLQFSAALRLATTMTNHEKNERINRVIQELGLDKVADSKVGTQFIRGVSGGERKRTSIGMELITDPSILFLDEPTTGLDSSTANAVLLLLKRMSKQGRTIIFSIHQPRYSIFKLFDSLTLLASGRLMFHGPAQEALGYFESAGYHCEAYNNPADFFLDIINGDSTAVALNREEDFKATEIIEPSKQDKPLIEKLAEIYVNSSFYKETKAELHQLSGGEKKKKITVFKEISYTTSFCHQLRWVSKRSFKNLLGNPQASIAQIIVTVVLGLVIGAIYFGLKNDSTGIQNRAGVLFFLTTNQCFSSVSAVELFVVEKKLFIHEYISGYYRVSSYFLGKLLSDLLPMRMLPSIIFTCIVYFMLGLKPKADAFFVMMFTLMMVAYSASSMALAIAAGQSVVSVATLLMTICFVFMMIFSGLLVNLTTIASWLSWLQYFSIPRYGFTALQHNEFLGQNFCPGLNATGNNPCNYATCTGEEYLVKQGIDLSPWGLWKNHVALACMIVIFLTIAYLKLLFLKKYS

human hepatocytes [8] = experiment: Cytotoxicity of six test articles in hepatocyte cultures (MTS); details: Donor 1, 72±2 hours
[9] = two concentrations per test article

T3 sequence (Q9Y6L6 whole entry): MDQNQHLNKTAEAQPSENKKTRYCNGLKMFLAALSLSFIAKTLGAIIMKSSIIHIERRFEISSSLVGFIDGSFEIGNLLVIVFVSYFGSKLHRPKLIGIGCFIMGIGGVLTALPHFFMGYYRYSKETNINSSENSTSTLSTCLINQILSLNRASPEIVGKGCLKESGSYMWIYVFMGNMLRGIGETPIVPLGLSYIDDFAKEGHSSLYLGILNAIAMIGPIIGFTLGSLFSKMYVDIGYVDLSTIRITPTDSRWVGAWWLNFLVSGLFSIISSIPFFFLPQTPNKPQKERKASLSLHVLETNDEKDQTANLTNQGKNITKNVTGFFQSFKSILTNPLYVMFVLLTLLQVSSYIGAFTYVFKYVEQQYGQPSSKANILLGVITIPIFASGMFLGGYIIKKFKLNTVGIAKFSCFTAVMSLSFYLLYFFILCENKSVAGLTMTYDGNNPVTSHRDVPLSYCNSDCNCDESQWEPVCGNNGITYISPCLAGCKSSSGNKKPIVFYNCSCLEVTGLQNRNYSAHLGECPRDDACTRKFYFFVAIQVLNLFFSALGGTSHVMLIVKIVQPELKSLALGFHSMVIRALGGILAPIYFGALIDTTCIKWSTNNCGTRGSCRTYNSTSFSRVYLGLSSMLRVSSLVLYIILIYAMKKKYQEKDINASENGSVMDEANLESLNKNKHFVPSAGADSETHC
Chain of OATP1B3 (Q9NPD5 whole entry): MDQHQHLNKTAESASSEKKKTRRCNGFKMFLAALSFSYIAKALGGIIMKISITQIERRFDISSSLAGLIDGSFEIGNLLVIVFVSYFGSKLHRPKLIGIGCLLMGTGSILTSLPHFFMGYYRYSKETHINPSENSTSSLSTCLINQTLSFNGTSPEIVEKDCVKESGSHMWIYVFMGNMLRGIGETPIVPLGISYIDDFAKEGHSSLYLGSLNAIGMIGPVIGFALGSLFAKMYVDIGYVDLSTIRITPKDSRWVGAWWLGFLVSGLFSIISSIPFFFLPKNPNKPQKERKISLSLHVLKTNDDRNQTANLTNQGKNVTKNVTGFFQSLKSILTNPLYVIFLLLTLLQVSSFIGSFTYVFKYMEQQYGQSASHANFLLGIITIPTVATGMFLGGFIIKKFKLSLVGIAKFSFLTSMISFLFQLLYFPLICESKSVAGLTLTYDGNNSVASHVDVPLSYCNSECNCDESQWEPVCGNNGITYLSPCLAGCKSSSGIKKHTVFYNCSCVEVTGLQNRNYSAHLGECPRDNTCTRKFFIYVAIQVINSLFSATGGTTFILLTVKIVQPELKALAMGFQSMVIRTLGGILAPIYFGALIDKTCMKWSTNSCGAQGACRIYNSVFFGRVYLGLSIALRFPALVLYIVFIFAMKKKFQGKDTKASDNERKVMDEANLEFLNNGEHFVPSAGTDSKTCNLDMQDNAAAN
Chain of BSEP (O95342 whole entry): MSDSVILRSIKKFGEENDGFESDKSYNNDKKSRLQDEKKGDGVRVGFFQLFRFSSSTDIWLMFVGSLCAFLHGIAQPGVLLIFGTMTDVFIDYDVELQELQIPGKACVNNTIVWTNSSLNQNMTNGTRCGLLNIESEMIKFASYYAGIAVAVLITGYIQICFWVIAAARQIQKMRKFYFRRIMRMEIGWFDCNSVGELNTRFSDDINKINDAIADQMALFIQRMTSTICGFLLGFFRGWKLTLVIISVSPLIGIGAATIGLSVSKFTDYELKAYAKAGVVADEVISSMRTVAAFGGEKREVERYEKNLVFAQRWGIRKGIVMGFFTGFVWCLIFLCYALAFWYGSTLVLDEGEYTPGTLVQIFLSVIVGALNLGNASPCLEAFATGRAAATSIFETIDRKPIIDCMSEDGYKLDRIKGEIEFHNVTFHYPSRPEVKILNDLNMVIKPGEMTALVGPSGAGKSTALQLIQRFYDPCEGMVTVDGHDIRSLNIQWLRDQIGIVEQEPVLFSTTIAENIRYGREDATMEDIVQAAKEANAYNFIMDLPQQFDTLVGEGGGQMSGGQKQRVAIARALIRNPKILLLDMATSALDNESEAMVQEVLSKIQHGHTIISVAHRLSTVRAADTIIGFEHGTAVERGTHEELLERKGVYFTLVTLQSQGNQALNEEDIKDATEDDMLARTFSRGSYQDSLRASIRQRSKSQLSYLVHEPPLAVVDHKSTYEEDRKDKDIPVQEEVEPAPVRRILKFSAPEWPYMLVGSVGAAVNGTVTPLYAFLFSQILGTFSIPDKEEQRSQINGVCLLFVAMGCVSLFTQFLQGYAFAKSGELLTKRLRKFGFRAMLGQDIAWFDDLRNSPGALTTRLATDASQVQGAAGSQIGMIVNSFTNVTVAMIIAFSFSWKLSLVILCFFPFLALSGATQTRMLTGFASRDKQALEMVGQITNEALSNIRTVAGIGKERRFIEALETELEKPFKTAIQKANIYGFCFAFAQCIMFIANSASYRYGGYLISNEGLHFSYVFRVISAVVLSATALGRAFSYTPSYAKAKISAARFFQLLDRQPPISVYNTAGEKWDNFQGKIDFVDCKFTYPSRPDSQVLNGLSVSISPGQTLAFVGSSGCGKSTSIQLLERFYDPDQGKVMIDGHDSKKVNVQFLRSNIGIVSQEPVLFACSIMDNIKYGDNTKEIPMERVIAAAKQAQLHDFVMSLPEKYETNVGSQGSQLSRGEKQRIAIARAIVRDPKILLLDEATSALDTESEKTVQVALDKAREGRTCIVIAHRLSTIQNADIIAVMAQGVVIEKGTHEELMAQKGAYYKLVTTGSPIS

O=C(O)Cc1ccccc1 [Phenylacetic acid, phenylacetic acid]
Substrate of OAT3 (OAT3 [1]; 1 and 10 μM): not a substrate | Substrate of OAT3 (OAT3 [1]; test article 1 and 10 μM): No | Substrate of OCT1 (OCT1 [2]; 1 and 10 μM): not a substrate | Substrate of OCT1 (OCT1 [2]; test article 1 and 10 μM): No | Substrate of OATP1B1 (OATP1B1 [3]; 1 and 10 μM): not a substrate | Substrate of OATP1B1 (OATP1B1 [3]; test article 1 and 10 μM): No | Permeability in Caco-2 cell assay (Caco-2 cells): high permeability | Papp A→B (in vitro): ≥ 26.1 ×10⁻⁶ cm/s | Papp B→A (in vitro): ≥ 16.9 ×10⁻⁶ cm/s | recovery (in vitro): ≥ 90.2% | Substrate of BSEP (BSEP): No | Inhibition of OAT3 (OAT3 [4]): did not inhibit | Inhibitor of OAT3 (OAT3 [4]): No | Inhibition of OCT1 (OCT1 [5]): did not inhibit | Inhibitor of OCT1 (OCT1 [5]): No | potency estimated from few doses (OATP1B1 [6]; read-out: Estimated IC50, OATP1B1, estimated from two concentrations): > 7.5 mM | Inhibition of OATP1B1 (OATP1B1 [6]; [9]): inhibited | Inhibitor of OATP1B1 (OATP1B1 [6]; [9]): Yes | Inhibition of OATP1B3 (OATP1B3): did not inhibit | Inhibitor of OATP1B3 (OATP1B3): No | % of time zero remaining in hepatocyte cultures (human hepatocytes [7]; 4 hours): ≤ 75.9% | % of time zero remaining in hepatocyte cultures (human hepatocytes [7]; 24 hours): ≤ 2.31% | Substrate of BCRP (BCRP; Caco-2, 1 and 10 μM): not a substrate | Substrate of BCRP (BCRP; test article 1 and 10 μM, Caco-2 cells): No | Concentrations at which not hepatotoxic (human hepatocytes [8]): ≤ 500 µM
